The target of test [1] is T1, SARS-CoV-2 PLpro (nsp3 1564–1878) (Severe acute respiratory syndrome coronavirus 2, UniProt P0DTD1). The test can be described thus: biochemical. Also on record: FRET-quenched peptide (Pro3) cleavage by PLpro, 10 min pre-incubation, slope over 20 min, normalised to no-compound control. Conditions: read-out: % of control remaining.
For test [2], the target named is T1, SARS-CoV-2 PLpro (nsp3 1564–1878). The test can be described thus: biochemical. Conditions: read-out: % of control remaining. On the set-up: FRET-quenched peptide (Pro3) cleavage by PLpro, 10 min pre-incubation, slope over 20 min, normalised to no-compound control. The source holds these as a separate data set.

Drawing on paper PMC8286840, “Identifying SARS-CoV-2 antiviral compounds by screening for small molecule inhibitors of Nsp3 papain-like protease” (Biochemical Journal, 2021), this text covers remaining activity for 37 compounds.

Like-named read-outs stand apart in the source and are kept apart here.

Turning to `NC(=O)COc1c(F)cc(SCCNS(=O)(=O)c2ccccc2)cc1F`, the remaining activity at 3.75 µM in test [1] (Well no.=5925, high concentration screen) amounted to 93.7%. Moreover, the remaining activity at 1.25 µM in test [2] (Well no.=5925, low concentration screen) is 94.7%.
Consider `CC(CN1c2ccccc2Sc2ccccc21)N(C)C` (stereo not shown), for which the remaining activity at 3.75 µM in test [1] (Well no.=3844, high concentration screen) came to 97.9%. In addition, the remaining activity at 1.25 µM in test [2] (Well no.=3844, low concentration screen) was found to be 101%.
For `O=C1C[C@@H]2OCC=C3CN4CC[C@]56c7ccccc7N1[C@H]5[C@H]2[C@H]3C[C@H]46`, in test [1], the remaining activity at 3.75 µM worked out at 94.7%. The remaining activity at 1.25 µM in test [2] was found to be 94.4%.
Regarding `CN(C/C=C/C#CC(C)(C)C)Cc1cccc2ccccc12`, in test [1] (Well no.=3894, high concentration screen), the remaining activity at 3.75 µM came out at 103%. Further, in test [2] (Well no.=3894, low concentration screen), the remaining activity at 1.25 µM was found to be 102%.
As for `COc1ccc2c3c1O[C@H]1C[C@@H](O)C=C[C@@]31CCN(C)C2`, the remaining activity at 3.75 µM in test [1] (Well no.=3677, high concentration screen) came to 103%. In test [2] (Well no.=3677, low concentration screen), the remaining activity at 1.25 µM stood at 98.7%.
Take `O=C(O)CN(CCN(CC(=O)O)Cc1ccccc1O)Cc1ccccc1O`: the remaining activity at 3.75 µM in test [1] (Well no.=3846, high concentration screen) is 103%. The remaining activity at 1.25 µM in test [2] (Well no.=3846, low concentration screen) was 106%.
For `O=c1ccn([C@@H]2O[C@@]3(CO)CO[C@@H]2[C@@H]3O)c(=O)[nH]1`, the remaining activity at 3.75 µM in test [1] (Well no.=7864, high concentration screen) amounted to 92.8%. Moreover, the remaining activity at 1.25 µM in test [2] (Well no.=7864, low concentration screen) was 98.5%.
For the compound `CCOC(=O)[C@]12CC1/C(=N\O)c1ccccc1O2` (mixture of isomers) [CPCCOEt], the remaining activity at 3.75 µM in test [1] (Well no.=286, high concentration screen) is 99.4%. The remaining activity at 1.25 µM in test [2] (Well no.=286, low concentration screen) came to 95.2%.
Turning to `S=C(S)OC1CC2CC1C1CCCC21` (mixture of isomers) [D-609 potassium], the remaining activity at 3.75 µM in test [1] (Well no.=1374, high concentration screen) came out at 99%. Besides, the remaining activity at 1.25 µM in test [2] (Well no.=1374, low concentration screen) was found to be 99.3%.
For the compound `CCC(C)n1ncn(-c2ccc(N3CCN(c4ccc(OC[C@H]5CO[C@](Cn6cncn6)(c6ccc(Cl)cc6Cl)O5)cc4)CC3)cc2)c1=O` (mixture of isomers) [Itraconazole], in test [1] (Well no.=2228, high concentration screen), the remaining activity at 3.75 µM turned out to be 94.2%. In addition, the remaining activity at 1.25 µM in test [2] (Well no.=2228, low concentration screen) turned out to be 96.3%.
In the case of `OC[C@H]1O[C@@H](O[C@@H]2[C@@H](CO)OC(O)(CO)[C@H]2O)[C@H](O)[C@@H](O)[C@H]1O` (mixture of isomers) [Lactulose], the remaining activity at 3.75 µM in test [1] (Well no.=8140, high concentration screen) came out at 97.6%. In addition, the remaining activity at 1.25 µM in test [2] (Well no.=8140, low concentration screen) amounted to 95.7%.
Regarding `CCCCC(C)(O)C/C=C/[C@H]1[C@H](O)CC(=O)[C@@H]1CCCCCCC(=O)OC` (mixture of isomers) [Misoprostol], the remaining activity at 3.75 µM worked out at 98% in test [1] (Well no.=2194, high concentration screen) and 103% in test [1] (Well no.=7473, high concentration screen). Further, the remaining activity at 1.25 µM in test [2] (Well no.=2194, low concentration screen) turned out to be 99.5%; in test [2] (Well no.=7473, low concentration screen), 104%.
On to `CCCN(CCC)C1CCc2ccc(O)cc2C1` (racemic), for which, in test [1] (Well no.=662, high concentration screen), the remaining activity at 3.75 µM came out at 94.8%. Moreover, the remaining activity at 1.25 µM in test [2] (Well no.=662, low concentration screen) stood at 94.1%.
As for `CC(N)c1cccc(Cl)c1Cl` (racemic), the remaining activity at 3.75 µM in test [1] (Well no.=734, high concentration screen) amounted to 94.8%. Further, the remaining activity at 1.25 µM in test [2] (Well no.=734, low concentration screen) turned out to be 92.1%.
As for `NC(CCCCCP(=O)(O)O)C(=O)O` (racemic), the remaining activity at 3.75 µM in test [1] (Well no.=17, high concentration screen) turned out to be 97.5%. Also, the remaining activity at 1.25 µM in test [2] (Well no.=17, low concentration screen) is 100%.
Regarding `NC1CCN(O)C1=O` (racemic), the remaining activity at 3.75 µM in test [1] (Well no.=250, high concentration screen) came out at 103%. Besides, the remaining activity at 1.25 µM in test [2] (Well no.=250, low concentration screen) worked out at 101%.
Consider `C=CCN1CCc2c(cc(O)c(O)c2Cl)C(c2ccccc2)C1` (racemic), for which, in test [1] (Well no.=725, high concentration screen), the remaining activity at 3.75 µM was determined as 96.5%. The remaining activity at 1.25 µM in test [2] (Well no.=725, low concentration screen) is 96.8%.
`CC1CCN=C(N)S1` (racemic): the remaining activity at 3.75 µM in test [1] (Well no.=12, high concentration screen) is 106%. Further, in test [2] (Well no.=12, low concentration screen), the remaining activity at 1.25 µM turned out to be 105%.
For `CN(C)CCC(c1ccc(Br)cc1)c1ccccn1` (racemic), the remaining activity at 3.75 µM in test [1] (Well no.=219, high concentration screen) was determined as 97.9%. For the same compound, in test [2] (Well no.=219, low concentration screen), the remaining activity at 1.25 µM amounted to 97.7%.
On to `Cc1o[nH]c(=O)c1CC(N)C(=O)O` (racemic), for which, in test [1] (Well no.=508, high concentration screen), the remaining activity at 3.75 µM turned out to be 100%. The remaining activity at 1.25 µM in test [2] (Well no.=508, low concentration screen) came out at 99.4%.
Take `NC(CCP(=O)(O)O)C(=O)O` (racemic): in test [1] (Well no.=297, high concentration screen), the remaining activity at 3.75 µM was determined as 101%. The remaining activity at 1.25 µM in test [2] (Well no.=297, low concentration screen) stood at 102%.
In the case of `COc1cc(C(O)C(=O)O)ccc1O` (racemic), the remaining activity at 3.75 µM in test [1] (Well no.=606, high concentration screen) was found to be 97.2%. Also, the remaining activity at 1.25 µM in test [2] (Well no.=606, low concentration screen) stood at 96%.
As for `CCC1(c2ccc(N)cc2)CCC(=O)NC1=O` (racemic), the remaining activity at 3.75 µM in test [1] (Well no.=202, high concentration screen) was found to be 102%. Moreover, in test [2] (Well no.=202, low concentration screen), the remaining activity at 1.25 µM turned out to be 100%.
For the compound `CN1CCN(C2Cc3ccccc3Sc3ccc(Cl)cc32)CC1` (racemic), the remaining activity at 3.75 µM in test [1] (Well no.=804, high concentration screen) amounted to 105%. For the same compound, the remaining activity at 1.25 µM in test [2] (Well no.=804, low concentration screen) was determined as 104%.
For the compound `CC(C)(C)NCC(O)COc1cccc2[nH]c(=O)[nH]c12` (racemic), in test [1] (Well no.=629, high concentration screen), the remaining activity at 3.75 µM is 101%. The remaining activity at 1.25 µM in test [2] (Well no.=629, low concentration screen) is 101%.
In the case of `N[C@H](C(=O)O)c1cccc(O)c1` (racemic), the remaining activity at 3.75 µM in test [1] (Well no.=476, high concentration screen) came out at 97%. Moreover, the remaining activity at 1.25 µM in test [2] (Well no.=476, low concentration screen) is 101%.
As to `C[C@H](Nc1ccc(Cl)cc1)C(=O)O` (racemic), in test [1] (Well no.=230, high concentration screen), the remaining activity at 3.75 µM was determined as 97.1%. The remaining activity at 1.25 µM in test [2] (Well no.=230, low concentration screen) turned out to be 95.2%.
As for `CNC[C@H](O)c1ccc(O)c(O)c1` (racemic), the remaining activity at 3.75 µM in test [1] (Well no.=605, high concentration screen) worked out at 99.2%. For the same compound, the remaining activity at 1.25 µM in test [2] (Well no.=605, low concentration screen) worked out at 99.5%.
On to `NC(CCCP(=O)(O)O)C(=O)O` (racemic), for which the remaining activity at 3.75 µM in test [1] (Well no.=65, high concentration screen) is 97.5%. Moreover, in test [2] (Well no.=65, low concentration screen), the remaining activity at 1.25 µM turned out to be 103%.
With `CC(C)(C)[C@]1(O)CCN2C[C@H]3c4ccccc4CCc4cccc(c43)[C@@H]2C1` (racemic), in test [1] (Well no.=135, high concentration screen), the remaining activity at 3.75 µM was determined as 102%. For the same compound, the remaining activity at 1.25 µM in test [2] (Well no.=135, low concentration screen) turned out to be 101%.
As for `COc1cc(CC(C)N)c(OC)cc1I` (racemic), the remaining activity at 3.75 µM in test [1] (Well no.=686, high concentration screen) was determined as 92.3%. In test [2] (Well no.=686, low concentration screen), the remaining activity at 1.25 µM was found to be 94.3%.
For the compound `O=C(O)C1CCCNC1` (racemic), the remaining activity at 3.75 µM in test [1] (Well no.=195, high concentration screen) worked out at 97.6%. The remaining activity at 1.25 µM in test [2] (Well no.=195, low concentration screen) came to 102%.
Regarding `NCC(CC(=O)O)c1ccc(Cl)cc1` (racemic), the remaining activity at 3.75 µM in test [1] (Well no.=31, high concentration screen) stood at 97.2%. Moreover, the remaining activity at 1.25 µM in test [2] (Well no.=31, low concentration screen) amounted to 96.2%.
As to `CCCN(CCC)C1CCc2cccc(O)c2C1` (racemic), the remaining activity at 3.75 µM in test [1] (Well no.=470, high concentration screen) came to 98.3%. For the same compound, the remaining activity at 1.25 µM in test [2] (Well no.=470, low concentration screen) amounted to 99.9%.
As for `COC(=O)C1=C(C)NC(C)=C([N+](=O)[O-])C1c1ccccc1C(F)(F)F` (racemic), the remaining activity at 3.75 µM in test [1] (Well no.=133, high concentration screen) is 105%. For the same compound, in test [2] (Well no.=133, low concentration screen), the remaining activity at 1.25 µM was determined as 108%.
Consider `NC(CP(=O)(O)O)C(=O)O` (racemic), for which the remaining activity at 3.75 µM in test [1] (Well no.=303, high concentration screen) stood at 100%. Also, in test [2] (Well no.=303, low concentration screen), the remaining activity at 1.25 µM came to 99.2%.
With `CC(C)NCC(O)COc1ccc(CC(N)=O)cc1` (racemic), in test [1] (Well no.=196, high concentration screen), the remaining activity at 3.75 µM amounted to 99.1%. In test [2] (Well no.=196, low concentration screen), the remaining activity at 1.25 µM came to 96.7%.
